Tests used:
Type in all cases: in vivo, NOD/SCID mice
[1] = test system: C28 colon tumor xenografts; assay: C28 colon tumor xenograft, doses and dosing regimen; conditions: from day 2
Description: The effect of multiple doses and dosing regimen of FZD8-Fc (54F03) on the growth of C28 colon tumor xenografts was analyzed. Dissociated C28 cells (10,000 per animal) were injected subcutaneously into 6-8 week old male NOD/SCID mice. On day 2, mice were randomized into 6 groups of 10 animals each. Animals were injected with either control antibody or FZD8-Fc at doses of 1.5 mg/kg (twice a week), 5 mg/kg (once and twice a week) and 15 mg/kg (once and twice a week). Administration of the antibody and FZD8-Fc was performed via injection into the intraperitoneal cavity. Tumor growth was monitored weekly and tumor measurements were initiated once tumors were palpable. Tumors were measured twice a week and tumor volume was determined as described herein.

PN21 pancreas tumor = PN21 pancreas tumor xenograft, tumor growth; conditions: FZD8-Fc 15 mg/kg i.p. once weekly
Description: The anti-tumor activity of FZD8-Fc (54F03) was evaluated in the PN21 pancreas tumor xenograft model. Dissociated OMP-PN21 cells (50,000 per animal) were injected subcutaneously into 6-8 week old male NOD/SCID mice. Tumor growth was monitored weekly and tumor measurements were initiated once tumors were palpable. On day 36, mice with average tumor volumes of 144 mm^3 were randomized into 4 groups of 9 animals each. Animals were injected with control antibody, FZD8-Fc (15 mg/kg), gemcitabine (2 mg/kg) or a combination of FZD8-Fc and gemcitabine. Administration of the FZD8-Fc and gemcitabine was performed via injection into the intraperitoneal cavity, once weekly. Tumors were measured twice a week and tumor volume was determined as described herein.

PN21 tumors = assay: Alcian blue and Ki67 staining of treated PN21 tumors
Description: The cell differentiation capability of FZD8-Fc was also evaluated in the OMP-PN21 pancreas tumor xenograft model. PN21 tumors from studies described in Example 8 were harvested and fixed in formalin, embedded in paraffin, and tumor sections of 4 μm thickness were cut. After deparaffinization and hydration, the tumor sections were subjected to an antigen retrieval process in Tris buffer (pH 9.5). Sections were incubated with hydrogen peroxide (Sigma-Aldrich, St Louis, Mo.) for 10 minutes to block endogenous peroxidases. Anti-Ki67 antibody (clone MIB-1, Dako, Carpinteria, Calif.) in blocking buffer (3% NHS, 1% BSA, 0.1% Tween-20 in PBS) at 1:200 dilution was added to each section and incubated for 1 hour. Slides were rinsed 3 times in PBST for 5 minutes each. Anti-mouse secondary antibody conjugated with HRP (ImmPRESS™ anti-mouse, Vector Laboratories Inc., Burlingame, Calif.) was added to the slides and incubated for 30 minutes. After multiple washes with PBST, Vector Nova Red substrate (Vector Laboratories Inc., Burlingame, Calif.) was added for localization of Ki67 antigen. The sections were treated with aqueous acetic acid for 5 minutes at room temperature. The sections were then treated with 1% alcian blue in 3% aqueous acetic acid for 30 minutes and washed with water. Sections were counter-stained in neutral fast red, dehydrated and mounted. […]

C28 colon tumor = C28 colon tumor xenograft, FZD8-Fc variants (Example 17); conditions: C28 established tumors; 15 mg/kg i.p. twice a week; after three weeks of treatment
Description: Dissociated C28 colon tumor cells (10,000 cells) were injected subcutaneously into 6-8 week old male NOD/SCID mice. Tumors were allowed to grow for 56 days until they reached an average volume of 175 mm^3. The mice were randomized (n=10 per group) and treated with FZD8-Fc constructs 54F03, 54F23, 54F26, or a control antibody at a dose of 15 mg/kg twice a week. Administration of the FZD8-Fc variants and control antibody was performed via injection into the intraperitoneal cavity. Tumor growth was monitored and tumor volumes were measured with electronic calipers at the indicated time points. Data are expressed as mean±S.E.M.

54F03: Fri domain of human FZD8 fused to human IgG1 Fc with GRA linker; SEQ ID NO:1
reduction of growth over control antibody ([1]; 1.5 mg/kg twice a week i.p.): 52%
reduction in tumor growth over control antibody ([1]; 15 mg/kg twice weekly i.p.): 83%
reduction in tumor growth as compared to control (PN21 pancreas tumor): 66%
proliferating cells denoted by expression of Ki67 (PN21 tumors): decrease in proliferating cells
cells expressing sialomucins (alcian blue) (PN21 tumors; vs control antibody or gemcitabine alone): increase in cells expressing sialomucins
reduction of tumor growth as compared to control antibody (C28 colon tumor): 48%

From patent publication US9157904B2, “Wnt antagonists and methods of treatment and screening” (OncoMed Pharmaceuticals, Inc., priority 2010, dated 2015)
